Data as given in patent US5011854A, “Hydroxamic acid derivatives and use thereof in combatting lipoxygenase-mediated diseases” (Kyowa Hakko Kogyo Co. Ltd., priority 1987, dated 1991).

Experiments:
lipoxygenase = conditions: known compounds; cited from earlier work
5-lipoxygenase [1] = molecular target: T1, 5-lipoxygenase (Rattus norvegicus, UniProt P12527); experiment: 5-Lipoxygenase inhibiting activity (Test Example 2, [14C]-arachidonic acid, TLC); format: biochemical; conditions: RBL-1 cells as enzyme source; 27 μM [14C]-arachidonic acid; pH 7.4; 37° C., 5 min; TLC/scintillation; read-out: Inhibitory Activity IC50, 5-Lipoxygenase
T1 construct: rat basophilic leukemia cells (RBL-1, ATCC No. CRL 1378) were used as the 5-lipoxygenase source; endogenous in cells; host or cells: RBL-1 (rat basophilic leukemia, ATCC CRL 1378)
T1 sequence (P12527 1-673): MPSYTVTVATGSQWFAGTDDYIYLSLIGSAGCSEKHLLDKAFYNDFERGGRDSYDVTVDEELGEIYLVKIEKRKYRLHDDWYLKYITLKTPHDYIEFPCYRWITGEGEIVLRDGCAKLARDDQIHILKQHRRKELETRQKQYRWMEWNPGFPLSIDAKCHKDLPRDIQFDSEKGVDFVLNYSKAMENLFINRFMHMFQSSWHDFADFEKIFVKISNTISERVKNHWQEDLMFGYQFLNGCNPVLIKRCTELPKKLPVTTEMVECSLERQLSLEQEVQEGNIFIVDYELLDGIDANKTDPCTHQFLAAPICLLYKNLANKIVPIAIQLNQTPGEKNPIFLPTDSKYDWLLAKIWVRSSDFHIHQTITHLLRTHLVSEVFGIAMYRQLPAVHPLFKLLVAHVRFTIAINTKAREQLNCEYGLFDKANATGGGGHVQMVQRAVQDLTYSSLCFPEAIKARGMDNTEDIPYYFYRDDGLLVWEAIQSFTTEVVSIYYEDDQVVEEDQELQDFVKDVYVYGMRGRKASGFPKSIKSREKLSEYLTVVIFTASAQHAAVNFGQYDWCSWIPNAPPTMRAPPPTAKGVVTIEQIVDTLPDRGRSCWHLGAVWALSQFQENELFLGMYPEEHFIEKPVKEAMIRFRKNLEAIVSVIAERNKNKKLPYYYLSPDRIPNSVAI
Experimental: The compounds listed in Table 3 were tested for their lipoxygenase inhibiting activity by the following methods:
(a') 5-Lipoxygenase inhibiting activity
Essentially, the same method described in the above (a) was used. Thus, rat basophilic leukemia cells (RBL-1, ATCC No. CRL 1378) were used as the 5-lipoxygenase source. These cells were contacted with the test compound in 30 μl of 0.17 M Tris-hydrochloride buffer (pH 7.4) containing […] calcium chloride, 3.3 mM adenosine triphosphate and 1 mM glutathione at 37° C. for 5 minutes. Then, 25 μl of 27 μM [^14 C]-arachidonic acid was added and the enzymatic reaction was allowed to proceed at 37° C. for 5 minutes. To the reaction mixture was added 50 μl of ethyl acetate/methanol/0.2 M citric acid (30/4/1), and the whole mixture was stirred. The reaction product extracted into the ethyl acetate layer was separated by silica gel thin layer chromatography [Merck Art 5631: developing solvent; petroleum ether/ethyl ether/acetic acid (50/50/1)]. The site of the product [^14 C]-5-hydroxy-6,8,11,14-eicosatetraenoic acid was detected by autoradiography, the gel portion corresponding to the site was scraped off and assayed for ^14 C using a liquid scintillation counter, and the yield of the product was determined.

[2] = literature; cited from earlier work
12-lipoxygenase [3] = molecular target: T2, 12-lipoxygenase (Bos taurus, UniProt F1MFA8); experiment: Platelet 12-lipoxygenase inhibiting activity (Test Example 2, [14C]-arachidonic acid, TLC); format: biochemical; conditions: bovine platelet-derived preparation; 20 μM [14C]-arachidonic acid; pH 7.4; 30° C., 10 min; TLC/scintillation; read-out: Inhibitory Activity IC50, 12-Lipoxygenase
T2 construct: a bovine platelet-derived preparation was used as the 12-lipoxygenase source; from tissue; host or cells: bovine platelets
T2 sequence (F1MFA8 1-663): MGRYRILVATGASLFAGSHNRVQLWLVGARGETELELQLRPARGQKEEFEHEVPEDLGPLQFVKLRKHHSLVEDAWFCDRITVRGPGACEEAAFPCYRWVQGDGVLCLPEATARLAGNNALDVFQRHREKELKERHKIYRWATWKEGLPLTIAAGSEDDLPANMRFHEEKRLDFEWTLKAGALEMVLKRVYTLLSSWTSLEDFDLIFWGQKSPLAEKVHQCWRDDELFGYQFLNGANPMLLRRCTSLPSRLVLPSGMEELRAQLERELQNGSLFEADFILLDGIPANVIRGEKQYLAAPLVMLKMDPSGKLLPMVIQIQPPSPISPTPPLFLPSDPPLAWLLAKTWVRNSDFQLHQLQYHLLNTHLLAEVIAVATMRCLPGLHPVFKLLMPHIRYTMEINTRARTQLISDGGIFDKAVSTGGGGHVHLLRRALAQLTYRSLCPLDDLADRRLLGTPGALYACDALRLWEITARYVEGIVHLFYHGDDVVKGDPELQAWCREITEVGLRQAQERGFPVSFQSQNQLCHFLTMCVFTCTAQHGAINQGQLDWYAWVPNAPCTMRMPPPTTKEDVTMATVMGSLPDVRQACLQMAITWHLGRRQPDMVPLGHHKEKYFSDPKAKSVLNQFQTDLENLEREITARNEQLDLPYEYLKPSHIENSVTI

12-lipoxygenase [4] = molecular target: T2, 12-lipoxygenase; experiment: Platelet 12-lipoxygenase inhibiting activity (Test Example 1, HPLC determination of 12-HETE); format: biochemical; conditions: bovine platelet-derived preparation; 60 μM arachidonic acid; pH 7.4; 30° C., 10 min; HPLC of 12-HETE; read-out: Inhibitory Activity IC50, 12-Lipoxygenase
Experimental: (§1) The compounds listed in Table 2 were tested in vitro for their lipoxygenase inhibiting activity in the following manner: a) Leukocyte 5-lipoxygenase inhibiting activity
The method of D.H. Nugtern et al. Biochem. Biophys. Acta, 380, 299 (1975) was modified. Thus, a bovine platelet-derived preparation was used as the 12-lipoxygenase source. This enzyme preparation and the test compound were brought into contact with each other in 60 μl of 0.17 M Tris-hydrochloride buffer (pH 7.4) at 30° C. for 5 minutes, 50 μl of 60 μM arachidonic acid was then added and the enzymatic reaction was allowed to proceed at 30° C. for 10 minutes. Thereafter, 200 μl of methanol and 13-hydroxylinolic acid (internal standard) were added and, after sufficient shaking, the mixture was allowed to stand at -20° C. for 30 minutes. The supernatant was collected by centrifugation (12,000 revolutions per minute, 10 minutes). This supernatant was evaporated to dryness under a nitrogen gas stream. To the residue was added 200 μl of 75% aqueous methanol and 100 μl of the resultant solution was subjected to high performance liquid chromatography for the determination of 12-HETE (12-hydroxyeicosapetraenoic acid). 12-HETE was assayed by ultraviolet absorption monitoring at 234 nm. The yield of 12-HETE was calculated from the peak area corrected in comparison with the peak of the internal standard.

5-lipoxygenase [5] = molecular target: T1, 5-lipoxygenase; experiment: Leukocyte 5-lipoxygenase inhibiting activity (Test Example 1, HPLC determination of 5-HETE); format: biochemical; conditions: RBL-1 cells as enzyme source; 60 μM arachidonic acid; pH 7.4; 37° C., 5 min; HPLC of 5-HETE; read-out: Inhibitory Activity IC50, 5-Lipoxygenase
Experimental: as §1
The method of B.A. Jakschik et al. Biochem. Biophys. Res. Commun., 95, 103 (1980) was modified. Thus, rat basophilic leukemia cells (RBL-1, ATCC No. CRL 1378) were used as the 5-lipoxygenase source. These cells were brought into contact with the test compound in 60 μl of 0.17 M Tris-hydrochloride buffer (pH 7.4) containing […], 3.3 mM adenosine triphosphate and 1 mM glutathione at 37° C. for 5 minutes, then 50 μl of 60 μM arachidonic acid was added and the enzymatic reaction was allowed to proceed at 37° C. for 5 minutes. Thereafter, 200 μl of methanol and 13-hydroxylinolic acid (internal standard) were added. After sufficient shaking, the mixture was allowed to stand at -20° C. for 30 minutes and then centrifuged for 10 minutes (12,000 revolutions per minute) to collect the supernatant. The supernatant was evaporated to dryness under a nitrogen gas stream. To the residue was added 200 μl of 75% aqueous methanol and 100 μl of the resultant solution was subjected to high performance liquid chromatography for the determination of 5-HETE (5-hydroxyeicosatetraenoic acid). 5-HETE was assayed on the basis of the absorption at 234 nm as measured by ultraviolet absorption monitoring. The yield of 5-HETE was calculated from the peak area corrected in comparison with the peak of the internal standard. […] (b) Platelet 12-lipoxygenase inhibiting activity

SMILES	IC50 (5-lipoxygenase [1])	IC50 (12-lipoxygenase [3])	IC50 (5-lipoxygenase [5])	other results
CC1=C(C)C(=O)C(CCCCC#CCCCC#CCO)=C(C)C1=O [AA-861, 2-(12-hydroxy-dodeca-5,10-diynyl)-3,5,6-trimethyl-1,4-benzoquinone, reference compound]	680 nM	450000 nM		lipoxygenase inhibiting activity (in words) (lipoxygenase): known to have lipoxygenase inhibiting activity; pharmacological activities (in words) [2]: bronchial contraction suppressing, anti-inflammatory, anti-myocardiac infarction and other activities
Cl.NC1=NN(c2cccc(C(F)(F)F)c2)CC1 [BW-755C, 3-amino-1-(3-trifluoromethylphenyl)-2-pyrazoline hydrochloride]		8800 nM		lipoxygenase inhibiting activity (in words) (lipoxygenase): known to have lipoxygenase inhibiting activity; pharmacological activities (in words) [2]: anti-inflammatory and other activities
CCCCCCCCCCCC(=O)N(O)CCCCCNCCCC(=O)O [Compound No. 6]			560 nM	
CCCCCCCCCCCC(=O)N(O)CCCCCNCCCC(=O)OC [Compound No. 7]			52 nM	
CCCCCCCCCCCC(=O)N(O)CCCCCNC(=O)CC(=O)OCC [Compound No. 8]			25 nM	IC50 (12-lipoxygenase [4]): 12 nM
CCCCCCCCCCCC(=O)N(O)CCCNC(=O)CCC(=O)O [Compound No. 10]			270 nM	IC50 (12-lipoxygenase [4]): 7000 nM
CCCCCCCCCCCCCCCCCC(=O)N(O)CCCCCNC(=O)CCC(=O)OC [compound 15]	800 nM	32000 nM		
COC(=O)CCC(=O)NCCCCCN(O)C(=O)CCCCCCCCC(C)C [compound 27]	89 nM	33 nM		

More lines, main results first:

IC50 (5-lipoxygenase [1])	IC50 (12-lipoxygenase [3])	IC50 (5-lipoxygenase [5])	SMILES	other results
		10 nM	CCCCCCCCCCCC(=O)NCCCCCN(O)C(=O)CCC(=O)OC [Compound No. 2]	IC50 (12-lipoxygenase [4]): 3300 nM
		54 nM	CCCCCCCCCCCC(=O)N(O)CCCCCNC(=O)CC(=O)OC [Compound No. 9]	IC50 (12-lipoxygenase [4]): 11 nM
		12 nM	CCCCCCCCCCCC(=O)N(O)CCCNC(=O)CCC(=O)OC [Compound No. 11]	
1870 nM	35 nM		CCCCCCCCCCCC(=O)N(O)CCCCCNC(=O)CCC(=O)O [Compound No. 12]	
55 nM	14 nM		CCCCCCCCCCCC(=O)N(O)CCCCCNC(=O)CCC(=O)OC [Compound No. 13]	
470 nM	1000 nM		CCCCCCCCCCCCCCCC(=O)N(O)CCCCCNC(=O)CCC(=O)OC [compound 17]	
360 nM	310 nM		CCC(C)CCCCCCCCCCC(=O)N(O)CCCCCNC(=O)CCC(=O)OC (stereo not shown) [compound 21]	
300 nM	56 nM		COC(=O)CCC(=O)NCCCCCN(O)C(=O)CCCCCCCCCCC(C)C [compound 23]	
190 nM	36 nM		CCCCCCCCCCCCC(=O)N(O)CCCCCNC(=O)CCC(=O)OC [compound 24]	
